Here are results for 1 compound from patent US9464092B2, “Transient protection of normal cells during chemotherapy” (G1 Therapeutics, Inc., priority 2013, dated 2016).

The nature of series [1]: Mouse pharmacokinetics (oral gavage / intravenous). Format: in vivo, mice. Conditions: mouse.
Series [2] is described as follows: Metabolic stability in liver microsomes. Format: in vitro ADME, human, dog, rat, monkey, and mouse. The conditions noted are these: each of the species tested. The method, then: Human, mouse, and dog liver microsomes were purchased from Xenotech, and Sprague-Dawley rat liver microsomes were prepared by Absorption Systems. The reaction mixture comprising 0.5 mg/mL of liver microsomes, 100 mM of potassium phosphate, pH 7.4, 5 mM of magnesium chloride, and 1 uM of test compound was prepared. The test compound was added into the reaction mixture at a final concentration of 1 uM. An aliquot of the reaction mixture (without cofactor) was incubated in shaking water bath at 37 deg. C. for 3 minutes. The control compound, testosterone, was run simultaneously with the test compound in a separate reaction. The reaction was initiated by the addition of cofactor (NADPH), and the mixture was then incubated in a shaking water bath at 37 deg. C. Aliquots (100 μL) were withdrawn at 0, 10, 20, 30, and 60 minutes for the test compound and 0, 10, 30, and 60 minutes for testosterone. […] Test compound samples were analyzed using the Orbitrap high resolution mass spectrometer to quantify the disappearance of parent test compound and detect the appearance of metabolites. […] Half-lives were calculated using GraphPad software, fitting to a single-phase exponential decay equation.
When calculated half-life was longer than the duration of the experiment, the half-life was expressed as >the longest incubation time. The calculated half-life is also listed in parentheses. […]
For orientation: Liver microsomes are a subcellular fraction often used to study metabolism.

A further series deals with HSPCs (bone marrow). Nature of the series: HSPC proliferation in bone marrow by EdU incorporation after oral gavage. It is filed as in vivo, mice. The method, then: Mice were then sacrificed at the indicated times (0, 12, 24, 36, or 48 hours following compound administration), and bone marrow was harvested (n=3 mice per time point), as previously described (Johnson et al. J. Clin. Invest. (2010) 120(7), 2528-2536). Four hours before the bone marrow was harvested, mice were treated with 100 μg of EdU by intraperitoneal injection (Invitrogen). Bone marrow mononuclear cells were harvested and immunophenotyped using previously described methods and percent EdU positive cells were then determined (Johnson et al. J. Clin. Invest. (2010) 120(7), 2528-2536). In brief, HSPCs were identified by expression of lineage markers (Lin-), Sca1 (S+), and c-Kit (K+).
Four hours before animals were sacrificed and the bone marrow was harvested, mice were treated with 100 μg of EdU by intraperitoneal injection. Three mice per group were sacrificed at 12 hours and the remaining three animals per group were sacrificed at 24 hours. Results are shown in FIG. 6A as the ratio of EdU positive cells for treated animals at 12 or 24 hour time points compared to control.
Further experiments were completed with Compound T examining dose response and longer periods of compound treatment. […] […].
Both compounds were administered at 150 mg/kg by oral gavage. One hour prior to harvesting bone marrow, EdU was IP injected to label cycling cells. Bone marrow was harvested at 12, 24, 36, and 48 hours after compound treatment and the percentage of EdU positive HSPC cells was determined at each time point.

In the next series the test system is tHS68 human fibroblasts. Nature of the series: Protection from chemotherapy-induced cell death (Cell TiterGlo). Format: cell-based. Conditions: etoposide 5 μM or carboplatin 100 μM. The method, then:
Cell survival was determined by Cell TiterGlo assay per manufacturer's recommendations. For both γ-H2AX and caspase 3/7 assays, cells were plated and allowed to become adherent for 24 hours. […] For γ-H2AX, cells were harvested for analysis 8 hours after chemotherapy exposure. For the γ-H2AX assay, cells were fixed, permeabilized, and stained with anti-γ-H2AX as per the γ-H2AX Flow Kit (Millipore) and quantitated by flow cytometry. Data was analyzed using FlowJo 2.2 software developed by TreeStar, Inc. For the in vitro caspase 3/7 assay, cells were harvested 24 hours post chemotherapy treatment. Caspase 3/7 activation was measured using the Caspase-Glo® 3/7 Assay System (Promega) per manufacturer's recommendations.

Series [3] relates to human renal proximal tubule cells. Briefly: Cell cycle analysis of renal proximal tubule cells with etoposide or cisplatin. Conditions: 10-1000 nM with etoposide or cisplatin. Format: cell-based. The method, then:
The ability of Cdk4/6 inhibitors to protect human renal proximal tubule cells from chemotherapy induced DNA damage was analyzed using etoposide and cisplatin. […] At the conclusion of the experiment, cells were harvested, fixed, and stained with propidium iodide (a DNA intercalator), which fluoresces strongly red (emission maximum 637 nm) when excited by 488 nm light. Samples were run on Dako Cyan flow cytometer.

Molecules are shown by their SMILES. Where two headings read alike, the source gives them in different places.

Take `CN1CCN(c2ccc(Nc3ncc4cc5n(c4n3)C3(CCCCC3)CNC5=O)nc2)CC1` [Compound T]: the F in series [1] was 80%. Further, the half-life in series [1] (plasma, po, 30 mg/kg, 30 mg/kg oral gavage, read-out: t1/2 p.o. (converted)) was 5 h. The half-life in series [1] (plasma, po, 30 mg/kg, read-out: plasma half-life following oral administration) was 3 to 5 h. The bioavailability (in general, the share of a dose that reaches the circulation, judged against a reference dose that is usually intravenous) in series [1] (plasma, po, 30 mg/kg, read-out: oral bioavailability (F (%))) was in the range of 52 to 80%. Besides, in series [1] (plasma, iv, 10 mg/kg i.v.), the area under the curve AUC(0-inf) (usually total exposure, with the tail of the curve extrapolated) is 1300 nM·h and the clearance was determined as 2.1 L/h/kg. The Vd in series [1] (plasma, iv, 10 mg/kg i.v., read-out: Vss) was 2.7 L/kg. Moreover, in series [1] (plasma, 30 mg/kg oral gavage), the AUC (usually concentration integrated over time) stood at 2900 nM·h; the peak level (Cmax) was 2.5 µM; the Tmax (in general, the time at which the peak concentration occurs) came out at 1 h. For the same compound, in series [2], the “half-life in liver microsomes compared with PD0332991” value was “shorter half-life than PD0332991”. Further, in the series with HSPCs (bone marrow) (150 mg/kg oral gavage), the “EdU incorporation into HSPCs at 12 and 24 hours compared to control” value is on record as “reduction in EdU incorporation at 12 hours which was starting to return to normal at 24 hours”. In addition, the “G1-arrest of bone marrow stem cells (HSPC)” value in the series on HSPCs (bone marrow) (oral gavage, mice) was “dose dependent, transient, and reversible G1-arrest”. The “protection from chemotherapy-induced cell death (cell survival)” value with tHS68 human fibroblasts is “selective protection from carboplatin and etoposide-induced cell death”. Moreover, the “protection from chemotherapy induced DNA damage (cell cycle distribution)” value in series [3] was “protects renal proximal tubule epithelial cells from chemotherapy induced DNA damage”.
